From patent US9149465B2, “Isoxazolines as inhibitors of fatty acid amide hydrolase” (Infinity Pharmaceuticals, Inc., priority 2009, dated 2015) come the findings set out here.

Molecules are shown by their SMILES.

For the experiment, the target named is T1, human FAAH (Homo sapiens, UniProt O00519).
T1 construct: host or cells: COS-7 cells, transient transfection; 13,000 g membrane fraction solubilised in 1% Triton X-100
T1 sequence (O00519 1-579): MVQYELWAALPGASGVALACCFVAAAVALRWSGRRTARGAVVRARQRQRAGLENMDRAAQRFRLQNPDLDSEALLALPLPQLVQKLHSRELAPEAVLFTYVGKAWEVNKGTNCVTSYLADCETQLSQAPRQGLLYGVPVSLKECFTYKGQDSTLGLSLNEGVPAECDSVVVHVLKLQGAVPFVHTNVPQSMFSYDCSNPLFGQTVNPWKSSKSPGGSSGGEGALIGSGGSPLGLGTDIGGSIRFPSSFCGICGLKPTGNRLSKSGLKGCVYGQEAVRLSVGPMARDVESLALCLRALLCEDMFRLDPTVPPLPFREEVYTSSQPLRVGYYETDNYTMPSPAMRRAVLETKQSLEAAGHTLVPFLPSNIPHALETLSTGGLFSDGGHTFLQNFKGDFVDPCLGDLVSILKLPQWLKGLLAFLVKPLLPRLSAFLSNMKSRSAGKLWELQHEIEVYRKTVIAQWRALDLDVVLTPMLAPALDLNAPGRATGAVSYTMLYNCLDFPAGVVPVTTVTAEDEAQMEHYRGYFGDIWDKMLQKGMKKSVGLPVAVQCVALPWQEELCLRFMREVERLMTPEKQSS
Nature of the experiment: Inhibition of human FAAH (AMC arachidonoyl amide fluorescence assay). It is filed as biochemical. The settings on record: inhibitor preincubated 30 minutes at room temperature; 20 μM AMC arachidonoyl amide; 4 hours; read-out: Activity (Ki, inhibitors of human FAAH). As for the experimental part: Human FAAH Preparation: COS-7 cells were split the day before, 1:5 into 150 mm x […] cell culture dishes (Corning Inc., Cat. No. 430599). Transient transfection took place at 30-40% confluency according to FuGENE 6 Transfection Reagent (Roche, Cat. No. 11814 443 001).
Transfection Procedure: The FuGENE transfection 6 reagent (45 uL) was added to 1410 μL of media (DMEM, serum free without pen/strep) in a 15 mL conical tube and incubated at room temp for 5 minutes, followed by the addition of FAAH plasmid DNA (15 μg) (OriGene Cat. No. TC119221, Genbank Accession No. NM_001441.1, 0.67 ug/uL) and a further incubation of 15 minutes at room temperature. The resulting solution was added into one dish of 30-40% confluent COS-7 cells in a drop-wise manner. The COS-7 cell dish was subsequently incubated for 48 hours. The cells are then harvested.
Harvest procedure: Media was aspirated from the dishes and the cells rinsed with 10 mL PBS. The PBS was removed and 3 mL of PBS added to the dish. The dish was scraped to resuspend the cells, and the subsequent cell suspension collected into a 15 mL conical tube. The cells were pelleted by centrifugation at 1200 rpm for 5 minutes in a bench top centrifuge. PBS was removed and the cell pellet snap frozen in liquid nitrogen and stored at −80° C.
COS-7 cells —FAAH purification: • (1) Fractionation: Frozen cell pellets from transient transfections were thawed on ice and resuspended in 12.5 mM Hepes pH 8.0, 100 mM NaCl, 1 mM EDTA (10 mL/0.2 g cell pellet). The pellets were dounce homogenized and then sonicated to produce cell extract. The cell extract was subsequently centrifuged at 1000 g to remove cellular debris. The pellet was discarded and the supernatant centrifuged at 13,000 g for 20 minutes. The pellet contained membrane bound FAAH. The supernatant was discarded and the pellet resolubilized. • (2) Re-solubilization: The fraction of interest, (13,000 g, membrane fraction) was re-suspended in 2.3 mL re-suspension buffer (20 mM Hepes pH 7.8, 10% v/v Glycerol, 1 mM EDTA, 1% Triton X-100) and the sample incubated on ice for 1 hour and then centrifuged to remove any particulate matter. The supernatant containing solubilized human FAAH was aliquoted and snap frozen in liquid nitrogen and stored at −80° C. until use. • (3) Characterization: Protein Concentration determined by Bradford assay. • SDS gel and Western blot to confirm presence of FAAH • FAAH activity assay • Km determination-96-well assay • Linear dependence—96-well assay • Standard compound Ki determination—384-well assay
Human FAAH assay; Experimental Protocol: A 0.1 mg/mL Human FAAH solution was made up in FAAH reaction buffer, and 24 ul pipeted into a 384 well plate. To this was added 1 μL of a 3 fold serially diluted inhibitor from a DMSO stock solution. The FAAH solution and inhibitor were incubated for 30 minutes at room temperature. The FAAH reaction was initiated by the addition of 25 μL of 40 μM AMC Arachidonoyl Amide in FAAH reaction buffer, yielding a final reaction human FAAH preparation concentration of 0.05 mg/ml and AMC-Arachidonoyl substrate concentration of 20 μM, reaction volume 50 μL. The reaction was allowed to proceed for 4 hours at room temperature. The reaction was stopped by the addition of 25 μL 12 μM a-ketoheterocycle (Cayman Chemicals, catalogue #10435). The microtiter plate was read in the envision plate reader.
The raw fluorescence was plotted on the y axis and the inhibitor concentration on the x axis to give a dose response inhibition curve. The data was fitted to a single site competitive inhibition equation, fixing the Km for the human enzyme to 12 μM and 9 μM respectively.
Regarding `O=C(O)c1cc(OC2=NOC(c3ccc(OC(F)(F)F)cc3)C2)ccn1` (racemic) [I-152], the Ki is at most 100 nM.
Then `Clc1ccc([C@H]2CC(Oc3cncnc3)=NO2)cc1` (racemic) [I-153], with 100 to 1000 nM; and `CC1(c2ccc(OC(F)(F)F)cc2)CC(Oc2ccc(-c3ccoc3)nc2)=NO1` (racemic) [I-154], with at most 100 nM; and `Cc1nnc(-c2ccc(OC3=NOC(c4ccc(Oc5ccccc5)cc4)C3)cn2)o1` (racemic) [I-155], with at most 100 nM.
Regarding `Cc1nnc(-c2ccc(OC3=NOC(C)(c4ccc(OC(F)(F)F)cc4)C3)cn2)o1` (racemic) [I-156], the Ki is at most 100 nM.
Consider `Cc1nnc(-c2ccc(OC3=NOC(c4ccc(OC(F)(F)F)cc4)C3)cn2)o1` (racemic) [I-157], for which the Ki is at most 100 nM.
As to `Cc1nnc(-c2ccc(OC3=NOC(C)(c4ccc(OC(F)(F)F)cc4)C3)cn2)s1` (racemic) [I-158], the Ki is at most 100 nM.
For `Cc1nnc(-c2ccc(OC3=NOC(c4ccc(Oc5ccccc5)cc4)C3)cc2)o1` (racemic) [I-159], the Ki is at most 100 nM.
The figure for `Cc1nnc(-c2cccc(OC3=NOC(c4ccc(Oc5ccccc5)cc4)C3)c2)o1` (racemic) [I-160] is at most 100 nM; for `FC(F)(F)Oc1ccc(C2CC(Oc3ccc(-c4nccs4)nc3)=NO2)cc1` (racemic) [I-162] it is at most 100 nM; for `FC(F)(F)Oc1ccc(C2CC(Oc3ccc(-c4ncco4)nc3)=NO2)cc1` (racemic) [I-163] it is at most 100 nM.
The figure for `CC1(c2ccc(OC(F)(F)F)cc2)CC(Oc2ccc(-c3nccs3)nc2)=NO1` (racemic) [I-164] is at most 100 nM; for `FC(F)(F)Oc1ccc(C2CC(Oc3ccc(-c4cn[nH]c4)nc3)=NO2)cc1` (racemic) [I-165] it is at least 1000 nM; for `c1ccc(C2CC(Oc3cncnc3)=NO2)cc1` (racemic) [I-166] it is 100 to 1000 nM.
Regarding `CC1(c2ccc(OC(F)(F)F)cc2)CC(Oc2ccc(S(C)(=O)=O)nc2)=NO1` (racemic) [I-167], the Ki is at most 100 nM.
Then `FC(F)(F)c1ccc(C2CC(Oc3cncnc3)=NO2)cc1` (racemic) [I-168], with 100 to 1000 nM; and `CS(=O)(=O)c1ccc(OC2=NOC(c3ccc(C(F)(F)F)cc3)C2)cn1` (racemic) [I-169], with at most 100 nM.
Take `O=C(O)c1ccc(OC2=NOC(c3ccc(C(F)(F)F)cc3)C2)cn1` (racemic) [I-170]: the Ki was at most 100 nM.
For `CC1(c2ccc(OC(F)(F)F)cc2)CC(n2cnc(C(=O)O)n2)=NO1` (racemic) [I-171], the Ki was at least 1000 nM.
For the molecule `CC1(c2ccc(OC(F)(F)F)cc2)CC(Oc2cc3ccccn3n2)=NO1` (racemic) [I-172], the Ki is at least 1000 nM.
Then `FC(F)(F)Oc1ccc(C2CC(Oc3ccc(-c4ccc[nH]4)nc3)=NO2)cc1` (racemic) [I-173], with at most 100 nM; and `FC(F)(F)Oc1ccc(C2CC(Oc3cccc(-c4nnn[nH]4)c3)=NO2)cc1` (racemic) [I-174], with 100 to 1000 nM.
As to `FC(F)(F)Oc1ccc(C2CC(Oc3ccc(-c4nnn[nH]4)cc3)=NO2)cc1` (racemic) [I-175], the Ki was in the range of 100 to 1000 nM.
Then `O=C(O)c1cccc(OC2=NOC(c3ccc(OC(F)(F)F)cc3)C2)c1` (racemic) [I-176], with at least 1000 nM; and `O=C(O)c1ccc(OC2=NOC(c3ccc(OC(F)(F)F)cc3)C2)cc1` (racemic) [I-177], with 100 to 1000 nM.
Then `N#Cc1ccc(OC2=NOC(c3ccc(OC(F)(F)F)cc3)C2)cn1` (racemic) [I-178], with 100 to 1000 nM; and `CCCCc1ccc([C@H]2CC(Oc3cncnc3)=NO2)cc1` (racemic) [I-180], with at most 100 nM.
Then `CCCCc1ccc(C2CC(Oc3ccc(S(C)(=O)=O)nc3)=NO2)cc1` (racemic) [I-181], with at most 100 nM; and `CCS(=O)(=O)c1ccc(OC2=NOC(c3ccc(OC(F)(F)F)cc3)C2)cn1` (racemic) [I-182], with at most 100 nM.
Consider `O=S(=O)(c1ccc(OC2=NOC(c3ccc(OC(F)(F)F)cc3)C2)cn1)C1CCCC1` (racemic) [I-183], for which the Ki was in the range of 100 to 1000 nM.
The figure for `CC(C)CS(=O)(=O)c1ccc(OC2=NOC(c3ccc(OC(F)(F)F)cc3)C2)cn1` (racemic) [I-184] is 100 to 1000 nM.
In the case of `CC1(c2ccc(OC(F)(F)F)cc2)CC(Oc2ccc(-c3ncco3)nc2)=NO1` (racemic) [I-185], the Ki was at most 100 nM.
Consider `FC(F)(F)Oc1ccc(C2CC(Oc3ccc(-c4ccco4)nc3)=NO2)cc1` (racemic) [I-186], for which the Ki was at most 100 nM.
The figure for `Cc1ccc(-c2ccc(OC3=NOC(c4ccc(OC(F)(F)F)cc4)C3)cn2)o1` (racemic) [I-187] is at most 100 nM; for `O=C(O)c1ccc(-c2ccc(OC3=NOC(c4ccc(OC(F)(F)F)cc4)C3)cn2)o1` (racemic) [I-188] it is at least 1000 nM.
The figure for `Cn1nccc1-c1ccc(OC2=NOC(c3ccc(OC(F)(F)F)cc3)C2)cn1` (racemic) [I-189] is at most 100 nM; for `Cc1cc(-c2ccc(OC3=NOC(c4ccc(OC(F)(F)F)cc4)C3)cn2)n(C)n1` (racemic) [I-190] it is at most 100 nM.
The figure for `Cn1nc(C(F)(F)F)cc1-c1ccc(OC2=NOC(c3ccc(OC(F)(F)F)cc3)C2)cn1` (racemic) [I-191] is at least 1000 nM.
For the molecule `FC(F)(F)Oc1ccc(C2CC(Oc3ccc(-c4ccn[nH]4)nc3)=NO2)cc1` (racemic) [I-192], the inhibition constant Ki is at most 100 nM.
The figure for `O=C(O)c1ccc(-c2ccc(OC3=NOC(c4ccc(OC(F)(F)F)cc4)C3)cn2)s1` (racemic) [I-193] is 100 to 1000 nM; for `FC(F)(F)Oc1ccc(C2CC(Oc3ccc(-c4cnoc4)nc3)=NO2)cc1` (racemic) [I-194] it is at most 100 nM.
The figure for `FC(F)(F)Oc1ccc(C2CC(Oc3ccc(-c4nnn[nH]4)nc3)=NO2)cc1` (racemic) [I-195] is at most 100 nM; for `CCS(=O)(=O)c1ccc(OC2=NOC(C)(c3ccc(OC(F)(F)F)cc3)C2)cn1` (racemic) [I-196] it is at most 100 nM; for `CS(=O)(=O)c1ccc(OC2=NOC(c3ccc(Oc4ccccc4)cc3)C2)cn1` (racemic) [I-197] it is at most 100 nM.
The figure for `CC1(c2ccc(OC(F)(F)F)cc2)CC(Oc2ccc(-n3cccn3)nc2)=NO1` (racemic) [I-198] is at most 100 nM; for `Cc1noc(-c2cccc(OC3=NOC(c4ccc(OC(F)(F)F)cc4)C3)c2)n1` (racemic) [I-199] it is at least 1000 nM.
`Cn1nnc(-c2ccc(OC3=NOC(c4ccc(OC(F)(F)F)cc4)C3)cc2)n1` (racemic) [I-200]: the Ki was 100 to 1000 nM.
Consider `FC(F)(F)Oc1ccc(C2CC(Oc3ccc(-c4nnco4)cc3)=NO2)cc1` (racemic) [I-201], for which the Ki was at most 100 nM.
